# According to patent publication US20230374103A1, “Wnt SIGNALING PATHWAY INHIBITOR” (OSAKA UNIVERSITY, priority 2020, published 2023):
# Residues, ends and D or L forms follow the SMILES beside them.
# Experiments:
# binding of LGR4 to RSPO1 = biological target: T1, binding of LGR4 to RSPO1 (Homo sapiens, UniProt Q9BXB1); assay: Competitive binding analysis of LGR4 and biotinylated RSPO1 (Flag-LGR4 transfected HEK293 cells, immunoprecipitation); conditions: 50 ng/mL biotinylated RSPO1, 2 hours, MHP1-7 (FIG. 4)
# T1 construct: host or cells: HEK293
# T1 sequence (Q9BXB1 25-951): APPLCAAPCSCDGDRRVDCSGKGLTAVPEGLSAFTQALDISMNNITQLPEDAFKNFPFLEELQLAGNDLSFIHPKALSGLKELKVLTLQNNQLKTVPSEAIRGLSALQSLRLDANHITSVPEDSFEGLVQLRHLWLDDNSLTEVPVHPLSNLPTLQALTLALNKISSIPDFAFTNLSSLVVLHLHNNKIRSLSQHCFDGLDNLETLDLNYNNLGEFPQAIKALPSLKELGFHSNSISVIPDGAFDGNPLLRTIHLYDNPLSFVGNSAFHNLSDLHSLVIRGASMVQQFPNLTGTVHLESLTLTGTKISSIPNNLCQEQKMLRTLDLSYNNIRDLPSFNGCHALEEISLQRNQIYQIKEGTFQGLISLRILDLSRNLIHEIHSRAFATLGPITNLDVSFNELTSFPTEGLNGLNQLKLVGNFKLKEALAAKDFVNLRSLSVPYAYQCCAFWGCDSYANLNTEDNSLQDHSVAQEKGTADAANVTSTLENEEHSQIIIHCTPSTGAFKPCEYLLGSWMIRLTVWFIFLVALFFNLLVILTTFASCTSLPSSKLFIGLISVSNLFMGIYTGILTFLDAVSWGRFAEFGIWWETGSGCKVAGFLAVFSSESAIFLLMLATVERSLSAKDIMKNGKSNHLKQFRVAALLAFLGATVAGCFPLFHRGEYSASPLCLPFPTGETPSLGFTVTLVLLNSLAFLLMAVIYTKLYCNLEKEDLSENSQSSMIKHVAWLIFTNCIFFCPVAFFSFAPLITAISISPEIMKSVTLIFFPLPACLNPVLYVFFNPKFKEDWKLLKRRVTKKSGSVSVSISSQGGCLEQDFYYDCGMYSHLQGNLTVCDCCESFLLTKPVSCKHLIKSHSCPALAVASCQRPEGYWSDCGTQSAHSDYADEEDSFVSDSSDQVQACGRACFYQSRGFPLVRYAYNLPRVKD
# Method: HEK293 cells were incubated with 100 μg/mL of RANKL peptide or biotinylated RANKL peptide for 30 minutes, followed by immunoprecipitation. For competitive binding analysis, HEK293 cells were transfected with a Flag-tagged LGR4 expression plasmid (OriGene Technologies) for 48 hours, and incubated for 2 hours in the presence of 50 ng/mL L of recombinant human biotinylated RSPO1 (R&D System, #BT4645) and RANKL peptide. For immunoprecipitation, the cells were washed twice with cold PBS and dissolved in a lysis buffer (50 mM Tris-HCL, pH 7.4, 150 mM NaCl, 5 mM EDTA, 0.5% NP40, 10% glycerol and protease inhibitor cocktail (Roche)). The sample was centrifuged at 16,000 g for 10 minutes. The supernatant was collected, and the protein concentration was determined. Immunoprecipitation from samples containing equal amounts of protein was performed at 4° C. overnight using high-capacity streptavidin agarose (Thermo Fisher Scientific or Anti-FLAG M2 Affinity Gel (Sigma-Aldrich), followed by washing twice with a lysis buffer, and elution with 2× Laemmli Sample Buffer at 37° C. for 30 minutes before Western blotting. The blotted membrane was incubated with the primary antibody at 4° C. overnight, washed with TBS containing 0.1% Tween-20, then incubated with the HRP-conjugated secondary antibody at room temperature for 1 hour, and then incubated with Chemi-Lumi One L (Nacalai Tesque). […]
# A549 cells [1] = assay: Migration/invasion assay of A549 cells (Boyden chamber / Matrigel Invasion chamber); assay type: cell-based, human
# Method: The influence of RANKL peptide on the migration and invasion of A549 cells was examined. Specifically, the following procedure was performed. A chamber of an 8-μm polycarbonate membrane filter (Neuro Probe) was installed in the upper compartment of a Boyden chamber (48-well Chamber, Neuro Probe), A549 cells were seeded in serum-free DMEM containing MHP1-AcN, and DMEM containing 10% FBS was placed in the lower compartment, followed by incubation at 37° C. for 15 hours. In the invasion assay, the upper compartment was Matrigel Invasion chamber (Corning Life Science). Similar A549 cells were seeded in serum-free medium containing MHP1-AcN, and DEM containing 10% FBS was placed in the lower compartment. Cells adhering to the upper surface of each upper compartment were detached, the lower surface was stained with Diff-Quick (Sysmex), and the number of cells was counted under a microscope.
# [2] = test system: bleomycin-induced scleroderma model; assay: Late administration test in bleomycin-induced scleroderma model; assay type: in vivo, C57BL6/J mice; conditions: 800 μg/mouse i.p. 5 days/week for 14 days after 14 days of bleomycin
# Method: (§1) As test animals, C57BL6/J mice (female, 8 weeks were prepared. 200 μg/mouse of bleomycin was subcutaneously injected at a frequency of 5 days/week for 14 days. Subsequently, 800 μg/mouse of saline or RANKL peptide was intraperitoneally administered at a frequency of 5 days/week for 14 days. The nice were sacrificed after 14 days (28 days after the start of bleomycin administration), and the skin tissue of the bleomycin-administered portion was stained with Masson's trichrome to evaluate fibrosis. Further, the expression of collagen gene mRNA, which is a fibrosis index, in the skin was evaluated.
# [3] = test system: bleomycin-induced pulmonary fibrosis model; assay: Administration test in bleomycin-induced pulmonary fibrosis model; assay type: in vivo, C57BL6/J mice; conditions: 800 μg/mouse i.p. once, bleomycin intratracheally, 14 days
# Method: As test animals, C57BL6/J mice (female, 8 weeks old) were prepared. Saline or RANKL peptide (800 μg/mouse) was administered intraperitoneally, and immediately thereafter, saline or bleomycin (0.05 μg/mouse) was directly administered intratracheally. The mice were sacrificed 14 days after administration, the lung weight and body weight were measured, and the lung weight/body weight ratio was determined. In addition, the lung tissue, was stained with Masson's trichrome, and Masson's trichrome score evaluation (0: normal, 1: fibrotic lesions predominantly at the margin of the lung, 2: marginal or global multifocal fibrotic lesions, 3: fibrotic lesions in approximately ⅓ of the area, 4: fibrotic lesions accounting for ⅔ or more of the area) was performed based on the stained images. Further, the expression of fibrosis marker gene mRNA in lung tissue was evaluated.
# [4] = test system: α-SMA and Colla1 expression (EMT); assay: Expression of α-SMA and Colla1 induced by TGF-β in MRC-5 cells (real-time RT-PCR); assay type: cell-based
# Method: The influence of RANKL peptide on the expression of α-SMA and Colla1 induced by TGF-β was examined. Specifically, the following procedure was performed. After pretreatment of MHP1 with MRC-5 cells for 24 hours, 2 ng/m/ of TGFβ was added, the cells were collected after 24 hours, and mRNA levels were determined by real-time RT-PCR.
# [5] = test system: Wnt signaling activation by RSPO; assay: Wnt signaling inhibition test (β-catenin responsive element luciferase reporter); assay type: cell-based; conditions: HEK293 reporter cells; 50 ng/mL wnt3a + 20 ng/mL RSPO1/2/3; 24 hours; peptide tested MHP1-7 (FIG. 2)
# Method: HEK293 cells expressing luciferase under the control of β-catenin responsive element were plated on a 96 -well plastic plate (1×10^4 cells/well) and incubated in the presence or absence of 50 ng/mL of recombinant mouse wnt3a (R&D System, #1324-WN) and recombinant human RSPO1 (R&D System, #4645-RS), recombinant human RSPO2 (PeproTech, #120-43), or recombinant human RSPO3 (PeproTech, #120-44). When these were added at the same time as RANKL peptide, 50 ng/mL of recombinant mouse wnt3a and 20 ng/mL of RSPO1/2/3 were used. After incubation for 24 hours, luciferase activity was analyzed using a luciferase assay system (Promega) and a microplate luminometer (Centro XS3 LB960; Berthold Technologies). The protein concentration of each sample was measured using Takara Bradford Protein Assay Kit (Takara Bio Inc.). The results of luciferase activity were normalized to the protein concentration of each sample.
# A549 cells [6] = assay: Proliferation assay (MTT) of A549 cells; assay type: cell-based, human
# Method: The influence RANKL peptide on the proliferation of A549 cells (human lung alveolar basal epithelial cells: high expression of both LGR4 and RSPO3 was confirmed) was examined. Specifically, the following procedure was performed. MHP1 was administered at 1 ng/ml to 100 μg/ml to A549 cells, and the cell viability was calculated by MTT assay after 40 hours.
# smad2/3 = smad2/3 activation induced by TGF-β in MRC-5 cells (WB); assay type: cell-based; conditions: 24 hours pretreatment, 5 ng/ml TGFβ, 10 minutes, MHP1-AcN (FIG. 17)
# Method: The influence of RANEL peptide on smad2/3 activation induced by TGF-β was examined. Specifically, the following procedure was performed. After pretreatment of MRC-5 cells with MHP1 for 24 hours, 5 ng/ml of TGFβ was added to the medium, the medium was collected after 10 minutes, and WB was performed.
# A549 cell xenograft = A549 cell xenograft model; assay type: in vivo, BALB/cAJcl-nu/nu; conditions: 600 μg/mouse every day, up to 49 days
# Method: The influence of RANKL peptide on cancer in an A549 cell xenograft model was examined. Specifically, the following procedure was performed. 2×10^6 cells were administered subcutaneously to BALB/cAJcl-nu/nu […]. After one day, 600 μg/mouse of MHP1 was administered every day, and the tumor size was measured up to 49 days. Further, the tumor weight was measured.
# [7] = test system: bleomycin-induced scleroderma model; assay: Early administration test in bleomycin-induced scleroderma model; assay type: in vivo, C57BL6/J mice; conditions: 800 μg/mouse i.p. 5 days/week for 14 days in parallel with bleomycin
# Method: as §1, with “weeks old)” for “weeks”, “days, and in parallel with this,” for “days. Subsequently,”, “body weight was measured periodically during the dosing period. The mice” for “nice”, “sacrificed” for “sacrificed after”, “14” for “14 days (28”, “administration” for “bleomycin administration),”
# [8] = MRC-5 cells, 24 hours pretreatment, TGFβ 24 hours, 10, 30, 100 μg/ml MHP1-AcN (FIG. 19)
smiles,measurement,setting,value
CC[C@H](C)[C@H](NC(=O)[C@H](CO)NC(=O)[C@@H](NC(=O)[C@H](CCCCN)NC(=O)[C@@H](NC(=O)[C@@H](NC(=O)[C@H](Cc1ccc(O)cc1)NC(=O)[C@@H](NC(=O)[C@H](CCSC)NC(=O)[C@H](CC(C)C)NC(C)=O)C(C)C)C(C)C)C(C)C)[C@@H](C)O)C(=O)N[C@@H](CCCCN)C(=O)N[C@H](C(=O)N1CCC[C@H]1C(=O)N[C@@H](CO)C(=O)N[C@@H](CO)C(=O)N[C@@H](Cc1c[nH]cn1)C(=O)N[C@@H](CC(N)=O)C(=O)N[C@@H](CC(C)C)C(=O)N[C@@H](CCSC)C(=O)N[C@@H](CCCCN)C(=O)NCC(=O)NCC(=O)N[C@@H](CO)C(=O)N[C@H](C(=O)N[C@@H](CCCCN)C(=O)N[C@@H](CC(N)=O)C(=O)N[C@@H](Cc1c[nH]c2ccccc12)C(=O)N[C@@H](CO)C(=O)NCC(=O)N[C@@H](CC(N)=O)C(N)=O)[C@@H](C)O)[C@@H](C)CC [MHP1-7] (Ac-LMVYVVKTSIKIPSSHNLMKGGSTKNWSGN-NH2),RSPO1 in the total cell lysate and the lysate immunoprecipitated with FLAG (Streptavidin-HRP),binding of LGR4 to RSPO1,reduced
same,binding of LGR4 to RSPO1,binding of LGR4 to RSPO1,inhibits
same,migration of lung cancer cells (number of cells),"A549 cells [1]; A549 cells, Boyden chamber, 15 hours, MHP1-AcN (FIG. 15)",inhibited
same,invasion of lung cancer cells (number of cells),"A549 cells [1]; A549 cells, Matrigel Invasion chamber, MHP1-AcN (FIG. 15)",inhibited
same,Wnt signaling pathway in A549 cells,A549 cells [1]; migration/invasion test,inhibited
same,"skin thickening and fibrosis (Masson's trichrome, dermis thickness)",[2]; MHP1-7 (FIG. 8),inhibited
same,"expression of the collagen gene mRNA (Colla1, Colla2) in skin","[2]; MHP1-7 (FIGS. 9, 10)",inhibited
same,lung weight gain,[3]; MHP1-7 (FIG. 11),suppressed
same,weight loss (body weight),[3]; MHP1-7 (FIG. 11),suppressed
same,expression of the fibrosis marker gene mRNA in lung tissue,[3]; MHP1-7 (FIG. 12),inhibited
same,lung tissue fibrosis (Masson's trichrome score),[3]; MHP1-7 (FIG. 13),inhibited
same,expression of Colla1 induced by TGF-β,[4]; [8],inhibited
same,expression of α-SMA (ACTA2) induced by TGF-β,[4]; [8],inhibited
same,EMT (epithelial-mesenchymal transition),[4]; concluded from α-SMA and Colla1 expression in MRC-5 cells,inhibited
same,Wnt signaling activation by RSPO (luciferase activity normalized to protein concentration),[5],inhibited
same,"proliferation of lung cancer cells (cell viability, MTT)","A549 cells [6]; A549 cells, 1 ng/ml to 100 μg/ml, 40 hours, MHP1-AcN (FIG. 14)",inhibited
same,Wnt signaling pathway in A549 cells,A549 cells [6]; along with the inhibition of the proliferation,inhibited
same,smad2/3 activation induced by TGF-β,smad2/3,inhibited
same,influence on the degree of weight gain,A549 cell xenograft,not confirmed
same,growth of cancer (tumor volume),A549 cell xenograft; MHP1-AcN (FIG. 16),inhibited
same,"skin thickening and fibrosis (Masson's trichrome, dermis thickness)",[7]; MHP1-7 (FIG. 5),inhibited
same,expression of the collagen gene mRNA in skin,[7]; MHP1-7 (FIG. 6),inhibited
same,weight loss (body weight),[7]; MHP1-7 (FIG. 7),suppressed
